The source of these data is publication doi:10.1101/2024.08.25.609621 (bioRxiv, 2024).

Like-named read-outs stand apart in the source and are kept apart here. Some results are limits rather than exact numbers.

Test [1] deals with SARS-CoV-2 NSP3 macrodomain (Mac1) (Severe acute respiratory syndrome coronavirus 2, UniProt P0DTD1). The test is described as follows: biochemical. The format is binding. The conditions noted are these: for IC50: read-out: SARS CoV-2 macrodomain HTRF assay: IC50; for SARS CoV-2 macrodomain HTRF assay: Hillslope: dose-response fit.
Test [2] concerns the target SARS-CoV-2 NSP3 macrodomain (Mac1), P43 crystal form (Severe acute respiratory syndrome coronavirus 2, UniProt P0DTD1). The format is binding. The conditions noted are these: for 1-BDC: PanDDA background density correction; for Total number of conformations: ligand conformations modeled in Mac1 crystal structure; for 2*(1-BDC) (%): occupancy estimate from PanDDA 1-BDC; for X-ray crystallography: Binding site: site where the ligand is bound in the X-ray crystal structure.

Setting [3] is: X-ray crystal structure determined (TRUE).
Where [4] appears, read: crystal soak, soak concentration 10 mM.
Where [5] appears, read: crystal soak, soak concentration 10 mM, TRUE = ligand hit.
[6] abbreviates: site of ligand in X-ray crystal structure.
The mark [7] stands for this setting: soak concentration 10 mM, DMSO background map.
Setting [8] is: soak concentration 5 mM, DMSO background map.
The mark [9] stands for this setting: crystal soak concentration 10 mM, P43 crystals.
The mark [10] stands for this setting: crystal soak concentration 10 mM, DMSO background map.
The mark [11] stands for this setting: crystal soak concentration 20 mM, P43 crystals.
[12] abbreviates: crystal soak 10 mM, P43 crystals.
The mark [13] stands for this setting: crystal soak 10 mM, DMSO background map.

Take `OCCC(CO)Nc1ncnc2[nH]ccc12` (centres unmarked) [AVI-3734]: the Hill slope in test [1] (HTRF dose-response fit, Mac1) came to 1.2. In test [1] (SARS CoV-2 macrodomain HTRF assay, dose-response), this molecule yielded a Hill slope of 1.2. Moreover, in test [1] (Single dose, concentration 200 μM, read-out: Average % competition), the inhibition at 200 µM came out at 86%. Further, the inhibition at 200 µM in test [1] (preliminary screen, compound at 200 μM, mean of 3-4 technical replicates, read-out: % competition in HTRF assay) was 86%. Besides, in test [2], the 1-BDC is listed as 0.25, the “Total number of conformations” value is on record as 1 and the “2*(1-BDC) (%)” value is 50%. In addition, in test [2] (setting [3]), the X-ray crystal structure entry was “TRUE”. Further, in test [2] (setting [4]), the “Pandda run, overall: Modeled” value is “TRUE”. For the same molecule, in test [2] (setting [5]), the “Pandda run, overall: Hit” value is “TRUE”. Moreover, the Binding site result in test [2] (setting [6]) is on record as “Adenosine”. Moreover, in test [2] (setting [7]), the “PanDDA run, DMSO background map: 1-BDC” value stood at 0.25 and the “PanDDA run, DMSO background map: Hit” value is given as “TRUE”.
In the case of `FC(F)(F)C1CCCN1c1ncnc2[nH]ccc12` (centres unmarked) [AVI-5996], in test [1] (dose-response), the IC50 was above 1 mM.
Still for that read-out and setting: the value for `Cc1c[nH]c2ncnc(NCC3(O)CCS(=O)(=O)CC3)c12` [AVI-4199] was above 1 mM.
On to `CC(Nc1ncnc2[nH]ccc12)C1(O)CCCCC1` (centres unmarked) [AVI-4321], for which the Hill slope in test [1] (HTRF dose-response fit, Mac1) stood at 1.2. Besides, the “SARS CoV-2 macrodomain HTRF assay: Hillslope” value in test [1] is 1.2.
As to `OC1(CNc2ncnc3[nH]ccc23)CCC2(CC1)OCCO2` [AVI-4315], in test [1] (HTRF dose-response fit, Mac1), the Hill slope is reported as 1.2. Also, the “SARS CoV-2 macrodomain HTRF assay: Hillslope” value in test [1] came to 1.2.
Regarding `O=S1(=O)CCC(O)(CNc2ncnc3[nH]ccc23)CC1` [AVI-4316], the half-maximal inhibitory concentration (IC50) in test [1] (dose-response) is above 1 mM.
For the molecule `OCC(O)C1CCCN1c1ncnc2[nH]ccc12` (centres unmarked) [AVI-3701], in test [2], the 1-BDC is recorded as 0.18, the “Total number of conformations” value was found to be 1, the “2*(1-BDC) (%)” value is listed as 36% and the “X-ray crystallography: Binding site” value is given as “Adenosine”. Further, in test [2] (setting [4]), the “Pandda run, overall: Modeled” value is on record as “TRUE”. In addition, the “Pandda run, overall: Hit” value in test [2] (setting [5]) is on record as “TRUE”. In addition, in test [2] (setting [7]), the “PanDDA run, DMSO background map: 1-BDC” value is 0.18 and the “PanDDA run, DMSO background map: Hit” value is on record as “TRUE”.
`CCC1(O)CCN(c2ncnc3[nH]ccc23)C1` (centres unmarked) [AVI-612]: in test [2], the 1-BDC is on record as 0.17, the “Total number of conformations” value stood at 1 and the “2*(1-BDC) (%)” value is 34%. Moreover, the “Pandda run, overall: Modeled” value in test [2] (crystal soak, soak concentration 5 mM) was “TRUE”. Also, the “Pandda run, overall: Hit” value in test [2] (crystal soak, soak concentration 5 mM, TRUE = ligand hit) was “TRUE”. For the same molecule, the X-ray crystal structure result in test [2] (crystal structure with Mac1 determined (TRUE)) is given as “TRUE”. The Binding site result in test [2] (site of ligand in Mac1 crystal structure) is “Adenosine”. For the same molecule, in test [2] (setting [8]), the “PanDDA run, DMSO background map: 1-BDC” value was 0.17 and the “PanDDA run, DMSO background map: Hit” value is on record as “TRUE”.
For the molecule `Cc1cc2c(=O)n(CCN3C(=O)c4ccccc4S3(=O)=O)nnc2s1` [AVI-341], in test [2], the 1-BDC came to 0.18, the “Total number of conformations” value was determined as 1 and the “2*(1-BDC) (%)” value was 36%. Also, the X-ray crystal structure result in test [2] (TRUE = crystal structure with ligand determined) is on record as “TRUE”. The “PanDDA run, DMSO background map: 1-BDC” value in test [2] (crystal soak concentration 10 mM, DMSO background map, event 1) amounted to 0.18. For the same molecule, in test [2] (setting [9]), the “Pandda run, overall: Hit” value is on record as “TRUE” and the “Pandda run, overall: Modeled” value is listed as “TRUE”. Besides, in test [2] (setting [10]), the “PanDDA run, DMSO background map: Hit” value was “TRUE” and the “PanDDA run, DMSO background map: Modeled” value was “TRUE”. In addition, the “PanDDA run, DMSO background map: Hit” value in test [2] (crystal soak concentration 20 mM, DMSO background map) is “TRUE”. Moreover, the “PanDDA run, DMSO background map: 1-BDC” value in test [2] (crystal soak concentration 20 mM, DMSO background map, event 1) is given as 0.19. Also, in test [2] (setting [11]), the “Pandda run, overall: Hit” value was “TRUE” and the “Pandda run, overall: Modeling comment” value is “Duplicate, not modeled”. Besides, the Binding site result in test [2] (site of Mac1 where ligand bound in crystal structure) is on record as “Adenosine”.
Consider `OCC(Nc1ncnc2[nH]ccc12)C1CCOC1` (centres unmarked) [AVI-3679], for which, in test [2], the 1-BDC turned out to be 0.16, the “Total number of conformations” value was determined as 1 and the “2*(1-BDC) (%)” value was 32%. Moreover, the X-ray crystal structure entry in test [2] (setting [3]) is given as “TRUE”. For the same molecule, in test [2] (setting [12]), the “Pandda run, overall: Hit” value is listed as “TRUE” and the “Pandda run, overall: Modeled” value was “TRUE”. Further, in test [2] (setting [13]), the “PanDDA run, DMSO background map: 1-BDC” value worked out at 0.16 and the “PanDDA run, DMSO background map: Hit” value was “TRUE”. Besides, the Binding site entry in test [2] (setting [6]) is recorded as “Adenosine”.
In the case of `OCC(Cc1cccs1)Nc1ncnc2[nH]ccc12` (centres unmarked) [AVI-3711], in test [2], the 1-BDC is reported as 0.21, the “Total number of conformations” value came out at 1 and the “2*(1-BDC) (%)” value is reported as 42%. For the same molecule, the X-ray crystal structure result in test [2] (setting [3]) was “TRUE”. Moreover, in test [2] (setting [4]), the “Pandda run, overall: Modeled” value is “TRUE”. Further, in test [2] (setting [5]), the “Pandda run, overall: Hit” value is recorded as “TRUE”. Moreover, the Binding site result in test [2] (setting [6]) is “Adenosine”. Besides, in test [2] (setting [7]), the “PanDDA run, DMSO background map: 1-BDC” value worked out at 0.21 and the “PanDDA run, DMSO background map: Hit” value is listed as “TRUE”.
`Cc1nn(C)cc1C1CCC(CO)N1c1ncnc2[nH]ccc12` (centres unmarked) [AVI-3733]: in test [2], the 1-BDC was 0.1, the “Total number of conformations” value turned out to be 1, the “2*(1-BDC) (%)” value is on record as 20% and the “X-ray crystallography: Binding site” value is listed as “Adenosine”. For the same molecule, in test [2] (setting [12]), the “Pandda run, overall: Hit” value is given as “TRUE” and the “Pandda run, overall: Modeled” value is on record as “TRUE”. Further, in test [2] (setting [13]), the “PanDDA run, DMSO background map: 1-BDC” value amounted to 0.1 and the “PanDDA run, DMSO background map: Hit” value is given as “TRUE”.
